# Earlier results, collected in patent US20170020130A1, “METHOD OF PREPARATION AND COMPOSITION OF ANT[…]” (Eltron Research & Development, LLC, priority 2008, published 2017).
# Conditions: alkaline pH (7.5≦pH≦10.5), near the pKa
compound,measurement,value
CC(=O)OO [peracetic acid],stability (decomposition with evolution of oxygen),least stable
